Laboratory results from patent US7700592B2, “α2C adrenoreceptor agonists” (Schering Corporation, priority 2005, dated 2010).

target: T1, α2C receptor (Homo sapiens, UniProt P18825); test: GTPγS assay, efficacy agonist activity (Emax) for α2C; type: biochemical; conditions: active agonist = efficacy at α2C ≧30% Emax; functionally selective = additionally efficacy at α2A ≦30% Emax (GTPγS assay)
T1 sequence (P18825 1-462): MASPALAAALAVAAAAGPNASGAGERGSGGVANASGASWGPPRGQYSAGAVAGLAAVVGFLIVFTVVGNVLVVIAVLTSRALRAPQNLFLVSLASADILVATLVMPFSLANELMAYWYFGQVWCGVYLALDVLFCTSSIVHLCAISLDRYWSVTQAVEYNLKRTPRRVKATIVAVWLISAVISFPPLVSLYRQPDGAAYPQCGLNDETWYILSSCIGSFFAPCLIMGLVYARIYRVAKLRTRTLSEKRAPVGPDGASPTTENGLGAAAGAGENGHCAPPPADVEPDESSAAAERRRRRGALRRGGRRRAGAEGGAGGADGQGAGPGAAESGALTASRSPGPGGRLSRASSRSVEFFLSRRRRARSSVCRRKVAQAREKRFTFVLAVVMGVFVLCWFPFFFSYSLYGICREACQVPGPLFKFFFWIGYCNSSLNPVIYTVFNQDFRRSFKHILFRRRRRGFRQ
Method in brief: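 Emax measured in a [^35S]GTPγS functional assay at the human α2C adrenoceptor, following Umland et al. An efficacy of ≧30% Emax defines an active α2C agonist.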

SMILES | Efficacy agonist activity (Emax, GTPγS assay) for α2C: evaluated as active or functionally selective agonist
CCCCOC(=O)Nc1ccc2c(c1)N(Cc1c[nH]cn1)CCO2 [Compound 272] | active or functionally selective agonists of the α2C receptor subtype
CCCCCCNC(=O)N(C)c1ccc2c(c1)N(Cc1c[nH]cn1)CCO2 [Compound 273] | active or functionally selective agonists of the α2C receptor subtype
CCN(C(=O)NCc1ccco1)c1ccc2c(c1)N(Cc1c[nH]cn1)CCO2 [Compound 274] | active or functionally selective agonists of the α2C receptor subtype
CCN(C(=O)OCc1cccnc1)c1ccc2c(c1)N(Cc1c[nH]cn1)CCO2 [Compound 275] | active or functionally selective agonists of the α2C receptor subtype
CCN(C(=O)OCc1ccncc1)c1ccc2c(c1)N(Cc1c[nH]cn1)CCO2 [Compound 276] | active or functionally selective agonists of the α2C receptor subtype
CCN(C(=O)OCc1cc(C)on1)c1ccc2c(c1)N(Cc1c[nH]cn1)CCO2 [Compound 278] | active or functionally selective agonists of the α2C receptor subtype
CCN(C(=O)OCc1ccncc1N)c1ccc2c(c1)N(Cc1c[nH]cn1)CCO2 [Compound 279] | active or functionally selective agonists of the α2C receptor subtype
CCN(C(=O)NCc1ccccc1)c1ccc2c(c1)N(Cc1c[nH]cn1)CCO2 [Compound 280] | active or functionally selective agonists of the α2C receptor subtype
CCN(C(=O)OCc1cnc(N)nc1)c1ccc2c(c1)N(Cc1c[nH]cn1)CCO2 [Compound 281] | active or functionally selective agonists of the α2C receptor subtype
CCN(C(=O)OCc1cn(C)cn1)c1ccc2c(c1)N(Cc1c[nH]cn1)CCO2 [Compound 287] | active or functionally selective agonists of the α2C receptor subtype
CCN(C(=O)OCc1cn2ccsc2n1)c1ccc2c(c1)N(Cc1c[nH]cn1)CCO2 [Compound 289] | active or functionally selective agonists of the α2C receptor subtype
CCN(C(=O)OCc1cn2ccccc2n1)c1ccc2c(c1)N(Cc1c[nH]cn1)CCO2 [Compound 290] | active or functionally selective agonists of the α2C receptor subtype
O=C(NCc1ccccn1)Nc1ccc2c(c1)N(Cc1c[nH]cn1)CCO2 [Compound 291] | active or functionally selective agonists of the α2C receptor subtype
O=C(NCCc1cccs1)Nc1ccc2c(c1)N(Cc1c[nH]cn1)CCO2 [Compound 297] | active or functionally selective agonists of the α2C receptor subtype
O=C(Nc1ccc2c(c1)N(Cc1c[nH]cn1)CCO2)OCCOc1ccccc1 [Compound 304] | active or functionally selective agonists of the α2C receptor subtype
O=C(Nc1ccc2c(c1)N(Cc1c[nH]cn1)CCO2)OCc1ccc(F)cc1 [Compound 305] | active or functionally selective agonists of the α2C receptor subtype
O=C(Nc1ccc2c(c1)N(Cc1c[nH]cn1)CCO2)OCc1cccc(F)c1 [Compound 306] | active or functionally selective agonists of the α2C receptor subtype
O=C(NCc1ccc(F)cc1)Nc1ccc2c(c1)N(Cc1c[nH]cn1)CCO2 [Compound 307] | active or functionally selective agonists of the α2C receptor subtype
O=C(NCc1cccc(F)c1)Nc1ccc2c(c1)N(Cc1c[nH]cn1)CCO2 [Compound 308] | active or functionally selective agonists of the α2C receptor subtype

SMILES | Efficacy agonist activity (Emax, GTPγS assay) for α2C: evaluated as active or functionally selective agonist
CS(=O)(=O)c1ccc(COC(=O)Nc2ccc3c(c2)N(Cc2c[nH]cn2)CCO3)cc1 [Compound 309] | active or functionally selective agonists of the α2C receptor subtype
O=C(Nc1ccc2c(c1)N(Cc1c[nH]cn1)CCO2)OCc1nccs1 [Compound 310] | active or functionally selective agonists of the α2C receptor subtype
O=C(Nc1ccc2c(c1)N(Cc1c[nH]cn1)CCO2)OCc1cc2cccnc2s1 [Compound 311] | active or functionally selective agonists of the α2C receptor subtype
O=C(Nc1ccc2c(c1)N(Cc1c[nH]cn1)CCO2)OCc1nc2ccccc2s1 [Compound 312] | active or functionally selective agonists of the α2C receptor subtype
O=C(Nc1ccc2c(c1)N(Cc1c[nH]cn1)CCO2)OCc1ccnc(Cl)c1 [Compound 314] | active or functionally selective agonists of the α2C receptor subtype
O=C(Nc1ccc2c(c1)N(Cc1c[nH]cn1)CCO2)OCC1CCC1 [Compound 315] | active or functionally selective agonists of the α2C receptor subtype
O=C(Nc1ccc2c(c1)N(Cc1c[nH]cn1)CCO2)OCc1ccc2sccc2c1 [Compound 316] | active or functionally selective agonists of the α2C receptor subtype
Cc1cc(COC(=O)Nc2ccc3c(c2)N(Cc2c[nH]cn2)CCO3)no1 [Compound 317] | active or functionally selective agonists of the α2C receptor subtype
O=C(Nc1ccc2c(c1)N(Cc1c[nH]cn1)CCO2)OCc1cccnc1 [Compound 318] | active or functionally selective agonists of the α2C receptor subtype
CCN(C(=O)OCCSC)c1ccc2c(c1)N(Cc1c[nH]cn1)CCO2 [Compound 319] | active or functionally selective agonists of the α2C receptor subtype
CCN(C(=O)OCc1cc(C)nn1C)c1ccc2c(c1)N(Cc1c[nH]cn1)CCO2 [Compound 323] | active or functionally selective agonists of the α2C receptor subtype
CCN(C(=O)OCc1cc(C)n(C)n1)c1ccc2c(c1)N(Cc1c[nH]cn1)CCO2 [Compound 324] | active or functionally selective agonists of the α2C receptor subtype
CCN(c1ccc2c(c1)N(Cc1c[nH]cn1)CCO2)c1ccccn1 [Compound 326] | active or functionally selective agonists of the α2C receptor subtype
CCN(c1ccc2c(c1)N(Cc1c[nH]cn1)CCO2)c1nccs1 [Compound 327] | active or functionally selective agonists of the α2C receptor subtype
CCN(c1ccc2c(c1)N(Cc1c[nH]cn1)CCO2)c1cnccn1 [Compound 329] | active or functionally selective agonists of the α2C receptor subtype
CCN(c1ccc2c(c1)N(Cc1c[nH]cn1)CCO2)c1ncc([N+](=O)[O-])s1 [Compound 331] | active or functionally selective agonists of the α2C receptor subtype
CN(c1ccc2c(c1)N(Cc1c[nH]cn1)CCO2)c1ccccn1 [Compound 332] | active or functionally selective agonists of the α2C receptor subtype
CCN(c1ccc2c(c1)N(Cc1c[nH]cn1)CCO2)S(=O)(=O)CCN1C(=O)c2ccccc2C1=O [Compound 335] | active or functionally selective agonists of the α2C receptor subtype
Cc1cc(COC(=O)Nc2ccc3c(c2)N(Cc2c[nH]cn2)CCO3)n(C)n1 [Compound 340] | active or functionally selective agonists of the α2C receptor subtype
